The record followed here is PMC9697330, “Co-Delivery of 8-Hydroxyquinoline Glycoconjugates and Doxorubicin by Supramolecular Hydrogel Based on α-Cyclodextrin and pH-Responsive Micelles for Enhanced Tumor Treatment” (Pharmaceutics, 2022).

Read-outs that look alike come from different tables or passages of the source. Some results are limits rather than exact numbers.

For series [1], the system named is MCF-7 (human breast adenocarcinoma cell line). The experiment in a line: MTT assay, cytotoxicity against MCF-7 cells. Format: cell-based. The source says:
(§1) The human breast adenocarcinoma cell line (MCF-7) was received from collections at the Maria Skłodowska-Curie Memorial Cancer Center and Institute of Oncology (Gliwice, Poland). The Normal Human Dermal Fibroblasts—Neonatal (NHDF-Neo) were purchased from LONZA (Cat. No. CC-2509, Lonza, Poland). The culture media consisted of DMEM + F12 medium, with 5% antibiotics (penicillin and streptomycin) and 10% fetal bovine serum. The culture media was bought from HyClone. Fetal bovine serum (FBS) was purchased from Eurx, Poland. Antibiotic Antimycotic Solution (100×) was purchased from Sigma-Aldrich, Germany.
(§2) The cytotoxicity of blank and drug-loaded SMH were evaluated using the MTT assay (Merck, Darmstadt, Germany). Briefly, human breast adenocarcinoma (MCF-7) or Normal Human Dermal Fibroblasts-Neonatal (NHDF-Neo) cells were seeded into 96-well plates at a concentration of 5 × 10^3 per well. The cell cultures were incubated for 24 h at 37 °C in a humidified atmosphere of 5% CO2. Afterward, the culture medium was removed, replaced with tested formulations, in a medium with varying concentrations, and incubated further for 24, 48, or 72 h, respectively. After that, the medium was removed and the MTT solution was added (0.5 mg·mL^−1 in PBS). After three hours of incubation, the MTT solution was taken off and the precipitated formazan was dissolved in dimethylsulfoxide. The absorbance was measured at 570 nm using a plate reader (Epoch, BioTek, Winooski, VT, USA). The experiments were performed in at least three independent repetitions, with four technical repeats for each tested concentration. The IC50 values were calculated using CalcuSyn software (ver. 2.0, Biosoft, Cambridge, UK). The IC50 parameter was defined as the compound concentration that was necessary to reduce the proliferation of cells to 50% of the untreated control. The results are presented as average values with standard deviations. […] Values of CI < 1 represent synergism; CI = 1 represents an additive interaction (i.e., no interaction); and CI > 1 represents antagonism.
In general terms: Tetrazolium assays rely on reduction of a dye to a coloured formazan, in cell work by metabolically active cells.

The subject of series [2] is NHDF-Neo (Normal Human Dermal Fibroblasts-Neonatal). As to the kind of experiment: MTT assay, cytotoxicity against NHDF-Neo cells. Format: cell-based.
Source text: as §1, §2

Series [3] is described as follows: NMR titration for host-guest inclusion complex of 8HQ-Glu with α-CD. Format: physicochemical. To be noted: D2O, α-CD 10 mM, 8HQ-Glu 1 to 20 mM, 24 h at rt. The procedure:
SMHs were prepared based on the host–guest interaction between the PEG chains of mPEG-b-PKPC or mPEG-b-PTMC micelles and α-CD. Typically, the lyophilized micelles were resuspended (15 mg·mL^−1) in PBS at pH 7.4, as a hydrogel precursor. Then, the same volume of 12% solution of α-CD in PBS was added to the micelle solution. The mixture was vortexed for 1 min followed by sonication for 1 min. The resultant mixture was allowed to stand still overnight for solidification. Firstly, gelation was visually observed by a simple vial inversion method. […] Thus, SMHs obtained (mPEG-b-PKPC^SMH or mPEG-b-PTMC^SMH) were used for characterization studies without any further modification. The transmittance of the α-CD and mPEG-b-PKPC^mic solution, measured at predetermined time intervals at 650 nm, immediately after mixing, was studied using a UV-Vis spectrophotometer JASCO V-570 (Tokyo, Japan). To confirm the formation of supramolecular hydrogels, the samples of mPEG5k, α-CD, mPEG-b-PKPC, or mPEG-b-PTMC, the lyophilized mPEG-b-PKPC^mic, or mPEG-b-PTMC^mic, the physical mixture of α-CD with the respective micelles, and freeze-dried SMHs were studied using the X-ray diffraction method (XRD). […] The samples were incubated for 24 h at rt with gentle shaking and the NMR spectra were measured.

Regarding `OC1O[C@H](Cn2cc(COc3cccc4cccnc34)nn2)[C@@H](O)[C@H](O)[C@H]1O` (stereo partly drawn) [8HQ-Glu, 6-(4-(8-quinolinyloxymethyl)-1H-1,2,3-triazol-1-yl)-6-deoxy-D-glucopyranose], the IC50 in series [1] (Homo sapiens, MCF7, MCF-7, 24 h incubation, read-out: Activity IC50, as 8HQ-Glu concentration) is 168 µM; in series [1] (Homo sapiens, MCF7, MCF-7, 48 h incubation, read-out: Activity IC50, as 8HQ-Glu concentration) it was 128 µM; in series [1] (Homo sapiens, MCF7, MCF-7, 72 h incubation, read-out: Activity IC50, as 8HQ-Glu concentration), 55.3 µM; in series [2] (Homo sapiens, 24 h incubation, read-out: Activity IC50, as 8HQ-Glu concentration), > 200 µM; in series [2] (Homo sapiens, 48 h incubation, read-out: Activity IC50, as 8HQ-Glu concentration) it was > 200 µM; in series [2] (Homo sapiens, 72 h incubation, read-out: Activity IC50, as 8HQ-Glu concentration), > 200 µM. In addition, the “Host-guest inclusion complex formation with α-CD (in words)” value in series [3] is “no inclusion complex formation”.
For the molecule `COc1cccc2c1C(=O)c1c(O)c3c(c(O)c1C2=O)C[C@@](O)(C(=O)CO)C[C@@H]3O[C@H]1C[C@H](N)[C@H](O)[C@H](C)O1` [DOX, doxorubicin], the IC50 in series [1] (MCF-7, 24 h incubation, read-out: Activity IC50, as DOX concentration) was 8.73 µM; in series [1] (MCF-7, 48 h incubation, read-out: Activity IC50, as DOX concentration) it was 0.81 µM; in series [1] (MCF-7, 72 h incubation, read-out: Activity IC50, as DOX concentration), 0.15 µM; in series [2] (24 h incubation, read-out: Activity IC50, as DOX concentration), > 20 µM; in series [2] (48 h incubation, read-out: Activity IC50, as DOX concentration) it was 9.8 µM; in series [2] (72 h incubation, read-out: Activity IC50, as DOX concentration) it was 0.39 µM.
